Entries after “also recorded” stand apart in the source; their conditions may differ.
What was measured:
[1] = cited from earlier work
[2] = target: T1, CAII (Homo sapiens, UniProt P00918); assay: CAII esterase inhibition assay with 4-nitrophenyl acetate (pNPA) as colorimetric substrate; settings: at physiologically relevant concentrations
[3] = test system: mouse hearts; assay: Oxygen consumption by Langendorff-perfused mouse hearts; settings: 1 mM inhibitor, ex vivo Langendorff perfusion, C57BL6 mouse hearts, O2 in minus O2 out vs control solution
Description: To test the effects of carbonic anhydrase inhibitors on oxygen consumption, Langendorff perfusion experiments were conducted using mouse hearts. Hearts were isolated from ˜12-week-old C57BL6 male mice and perfused ex vivo in Langendorff mode (retrograde perfusion via the aorta) with perfusate containing Krebs-Henseleit electrolytes with 2 mM acetate. The perfusate was constantly oxygenated with an oxygenator. […] The inhibitor solution was oxygenated by bubbling with 95% O2/5% CO2 mixed gas prior to adding.
Dissolved oxygen concentration was measured in the perfusate, or in the carbonic anhydrase inhibitor solution, using an Oxygraph+ system. […] In each figure, “O2 in” refers to the oxygen concentration in the perfusate prior to entering the heart or in the carbonic anhydrase inhibitor solution, and “O2 out” refers to the oxygen concentration in the perfusate after it passes through the heart.
Oxygen consumption was measured as the difference between the O2 in measurements and the O2 out measurements, and results are shown in FIG. 32.

[4] = target: T1, CAII; settings: CAII binding; cited from earlier work

In the case of `CC(=O)Oc1ccccc1C(=O)O` [Aspirin, Acetylsalicylic acid], the half-life in blood [1] is listed as roughly 15 min.

With `O=C(O)c1ccccc1O` [SA, salicylic acid] the “inhibition of CAII” value [2] was “completely inhibited CAII”.

For `CC(=O)Nc1nnc(S(N)(=O)=O)s1` [acetazolamide], the “oxygen consumption by the heart” value [3] was “increase in oxygen consumption; also recorded: increased oxygen consumption”.

For `[Cu]` [copper], the “specificity toward copper over zinc” value [4] is given as 50 fold.

In the case of `CCN[C@H]1C[C@H](C)S(=O)(=O)c2sc(S(N)(=O)=O)cc21` [dorzolamide], the “oxygen consumption by the heart” value [3] was “increase in oxygen consumption; also recorded: increased oxygen consumption”.

Source: patent publication US20230081321A1, “CARBONIC ANHYDRASE II COMPOSITIONS AND METHODS OF USE THEREOF” (University of Florida Research Foundation, Incorporated, priority 2020, published 2023)
